Test results: article PMC8185074, “Anchor extension: a structure-guided approach to design cyclic peptides targeting enzyme active sites” (Nature Communications, 2021)

Legend:
Format in all cases: biochemical
HDAC3 = target: T1, HDAC3 (Homo sapiens, UniProt O15379); assay: HDAC3 inhibition, full IC50 measurement (Reaction Biology; fluorogenic p53 peptide RHKK(Ac)AMC)
T1 construct: purchased Reaction Biology Corporation (assay run by the CRO)
How it was run: (§1)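 Deacetylation of 50 μM RHKK(Ac)AMC is measured after 1 h at 30 °C in pH 8.0 Tris buffer (1% DMSO, 1 mg/ml BSA). Developer ends the reaction; the post-plateau 360/460 nm signal is fitted to IC50, averaging replicate measurements.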

HDAC8 = target: T2, HDAC8 (Homo sapiens, UniProt Q9BY41); assay: HDAC8 inhibition, full IC50 measurement (Reaction Biology; fluorogenic p53 peptide RHKK(Ac)AMC)
T2 construct: purchased Reaction Biology Corporation (assay run by the CRO)
T2 sequence (Q9BY41 1-377): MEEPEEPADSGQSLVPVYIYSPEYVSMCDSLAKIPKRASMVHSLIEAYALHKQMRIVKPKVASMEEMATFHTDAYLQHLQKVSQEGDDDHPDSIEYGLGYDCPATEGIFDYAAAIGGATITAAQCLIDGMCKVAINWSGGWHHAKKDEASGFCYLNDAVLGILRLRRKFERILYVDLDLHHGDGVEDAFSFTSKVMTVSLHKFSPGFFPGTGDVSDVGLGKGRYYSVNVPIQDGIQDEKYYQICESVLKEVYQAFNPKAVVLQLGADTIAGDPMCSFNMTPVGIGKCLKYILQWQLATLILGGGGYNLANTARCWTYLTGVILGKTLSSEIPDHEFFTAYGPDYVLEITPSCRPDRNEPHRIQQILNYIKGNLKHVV
How it was run: as §1

HDAC6 = target: T3, HDAC6 (Homo sapiens, UniProt Q9UBN7); assay: HDAC6 inhibition, full IC50 measurement (Reaction Biology; fluorogenic p53 peptide RHKK(Ac)AMC)
T3 construct: purchased Reaction Biology Corporation (assay run by the CRO)
T3 sequence (Q9UBN7 1-1215): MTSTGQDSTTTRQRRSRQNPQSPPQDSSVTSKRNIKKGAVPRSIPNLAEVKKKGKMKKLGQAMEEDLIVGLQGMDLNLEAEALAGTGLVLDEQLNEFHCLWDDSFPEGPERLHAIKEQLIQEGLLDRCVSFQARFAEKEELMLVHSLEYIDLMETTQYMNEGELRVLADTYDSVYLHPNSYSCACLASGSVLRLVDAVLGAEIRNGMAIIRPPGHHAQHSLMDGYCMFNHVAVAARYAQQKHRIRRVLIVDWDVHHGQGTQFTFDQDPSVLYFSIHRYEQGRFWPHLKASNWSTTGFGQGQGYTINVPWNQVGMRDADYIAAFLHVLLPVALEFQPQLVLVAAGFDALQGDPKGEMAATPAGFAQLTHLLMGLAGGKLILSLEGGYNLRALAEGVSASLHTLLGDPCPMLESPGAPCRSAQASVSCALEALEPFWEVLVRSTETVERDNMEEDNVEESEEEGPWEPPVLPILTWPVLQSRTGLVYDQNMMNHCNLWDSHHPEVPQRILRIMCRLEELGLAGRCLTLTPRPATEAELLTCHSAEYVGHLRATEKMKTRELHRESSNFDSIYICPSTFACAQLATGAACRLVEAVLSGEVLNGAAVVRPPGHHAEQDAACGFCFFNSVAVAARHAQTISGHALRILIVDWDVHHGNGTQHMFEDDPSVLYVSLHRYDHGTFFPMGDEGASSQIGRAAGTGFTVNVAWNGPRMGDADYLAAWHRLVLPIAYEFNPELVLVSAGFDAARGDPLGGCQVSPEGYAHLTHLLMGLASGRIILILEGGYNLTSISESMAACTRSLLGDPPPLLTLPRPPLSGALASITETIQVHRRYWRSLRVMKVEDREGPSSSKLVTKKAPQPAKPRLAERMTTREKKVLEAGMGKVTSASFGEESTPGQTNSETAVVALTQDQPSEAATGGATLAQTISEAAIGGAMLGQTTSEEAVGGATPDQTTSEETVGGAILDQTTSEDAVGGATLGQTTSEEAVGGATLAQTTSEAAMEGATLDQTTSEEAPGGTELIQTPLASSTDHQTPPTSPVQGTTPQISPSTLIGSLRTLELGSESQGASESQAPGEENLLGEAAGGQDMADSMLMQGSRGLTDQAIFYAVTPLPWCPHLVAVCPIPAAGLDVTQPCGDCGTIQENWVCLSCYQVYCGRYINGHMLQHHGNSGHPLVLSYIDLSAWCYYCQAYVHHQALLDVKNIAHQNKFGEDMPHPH
How it was run: as §1

T1 sequence (O15379 whole entry): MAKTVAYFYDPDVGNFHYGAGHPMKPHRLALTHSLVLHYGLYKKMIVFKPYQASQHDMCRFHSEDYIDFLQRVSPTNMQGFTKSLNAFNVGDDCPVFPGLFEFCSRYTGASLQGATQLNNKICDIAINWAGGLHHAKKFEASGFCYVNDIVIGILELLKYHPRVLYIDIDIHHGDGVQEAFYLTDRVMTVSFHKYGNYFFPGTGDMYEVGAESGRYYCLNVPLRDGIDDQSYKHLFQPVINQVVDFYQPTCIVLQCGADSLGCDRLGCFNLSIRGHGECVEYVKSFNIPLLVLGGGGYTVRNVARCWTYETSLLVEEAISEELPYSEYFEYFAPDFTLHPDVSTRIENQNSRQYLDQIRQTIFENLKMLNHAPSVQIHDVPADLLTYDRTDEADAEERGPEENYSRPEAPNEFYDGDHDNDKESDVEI
T1 sequence (Q9Y618 395-489 partner limits assumed): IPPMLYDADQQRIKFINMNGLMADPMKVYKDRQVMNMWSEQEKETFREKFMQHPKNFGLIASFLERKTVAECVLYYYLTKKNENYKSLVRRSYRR

N[C@@H](CCCCCS)C(=O)O [SHA, 2S-2-amino-7-sulfanylheptanoic acid]
HDAC3 inhibition potency in words (HDAC3): low micro-molar to high nano-molar affinities | HDAC3 raw activity signal (HDAC3; Conc. 1.00E-05 M): 305013 | HDAC3 raw activity signal (HDAC3; Conc. 1.11E-06 M): 772070 | HDAC3 raw activity signal (HDAC3; Conc. 1.23E-07 M): 916440 | HDAC3 raw activity signal (HDAC3; Conc. 1.37E-08 M): 1023518 | HDAC3 raw activity signal (HDAC3; Conc. 1.52E-09 M): 969054 | HDAC3 raw activity signal (HDAC3; Conc. 3.33E-06 M): 650146 | HDAC3 raw activity signal (HDAC3; Conc. 3.70E-07 M): 835487 | HDAC3 raw activity signal (HDAC3; Conc. 4.12E-08 M): 896484 | HDAC3 raw activity signal (HDAC3; Conc. 4.57E-09 M): 995503 | HDAC3 raw activity signal (HDAC3; Conc. 5.08E-10 M): 959845 | HDAC8 inhibition potency in words (HDAC8): low micro-molar to high nano-molar affinities | HDAC8 raw activity signal (HDAC8; Conc. 1.00E-05 M): 485885 | HDAC8 raw activity signal (HDAC8; Conc. 1.11E-06 M): 715893 | HDAC8 raw activity signal (HDAC8; Conc. 1.23E-07 M): 664184 | HDAC8 raw activity signal (HDAC8; Conc. 1.37E-08 M): 813063 | HDAC8 raw activity signal (HDAC8; Conc. 1.52E-09 M): 850527 | HDAC8 raw activity signal (HDAC8; Conc. 3.33E-06 M): 572309 | HDAC8 raw activity signal (HDAC8; Conc. 3.70E-07 M): 755715 | HDAC8 raw activity signal (HDAC8; Conc. 4.12E-08 M): 855669 | HDAC8 raw activity signal (HDAC8; Conc. 4.57E-09 M): 817878 | HDAC8 raw activity signal (HDAC8; Conc. 5.08E-10 M): 743919 | HDAC6 inhibition potency in words (HDAC6): low micro-molar to high nano-molar affinities | HDAC6 raw activity signal (HDAC6; Conc. 1.00E-05 M): 33328 | HDAC6 raw activity signal (HDAC6; Conc. 1.11E-06 M): 230710 | HDAC6 raw activity signal (HDAC6; Conc. 1.23E-07 M): 527992 | HDAC6 raw activity signal (HDAC6; Conc. 1.37E-08 M): 589576 | HDAC6 raw activity signal (HDAC6; Conc. 1.52E-09 M): 605039 | HDAC6 raw activity signal (HDAC6; Conc. 3.33E-06 M): 100537 | HDAC6 raw activity signal (HDAC6; Conc. 3.70E-07 M): 381738 | HDAC6 raw activity signal (HDAC6; Conc. 4.12E-08 M): 574853 | HDAC6 raw activity signal (HDAC6; Conc. 4.57E-09 M): 596934 | HDAC6 raw activity signal (HDAC6; Conc. 5.08E-10 M): 614098 | IC50 (HDAC6; read-out: HDAC6 IC50): 600 nM
